The results in this text go back to ChEMBL document CHEMBL3988442, “University of Dundee, Small-Polar-MMV Screening Library” (2021).

Assay [1] is described as follows: microbe, parasite or virus in culture. As to conditions: Mycobacterium tuberculosis, 96 h, read-out: pIC50 (converted).
Assay [2] can be described thus: microbe, parasite or virus in culture. As to conditions: Mycobacterium tuberculosis, 72 h, read-out: pIC50 (converted).

The structures appear in SMILES notation.

For `NC1CCN(c2ccccc2OC(F)F)C1` (stereo not drawn), the values for the IC50 in assay [1] and in assay [2] were over 501 µM and 135 µM, respectively.

Regarding `COc1ncccc1C(=O)NCCc1cccs1`, the IC50 in assay [1] was 285 µM; in assay [2], 347 µM.

Regarding `CCCc1cncnc1N1CCC(NCc2cc3ccccc3[nH]2)CC1`, the IC50 in assay [1] and in assay [2] was 18.3 µM throughout.

For `C=C(C)COC(=O)c1ccc(-n2cncn2)cc1C`, the IC50 in assay [1] is 279 µM; in assay [2] it was 182 µM.

Regarding `Cc1ncc(Cn2cc(F)ccc2=O)s1`, the IC50 in assay [1] and in assay [2] was over 501 µM in each case.

Take `Cc1ccc(C(N)=O)cc1NCC(C)C`: the IC50 in assay [1] and in assay [2] was over 501 µM each time.

Consider `CCn1ccc(C(=O)NC(C)c2ccccc2)n1` (stereo not drawn), for which the IC50 in assay [1] was 182 µM; in assay [2], 84.4 µM.

Turning to `COC(=O)c1snc(-c2ccccc2)c1N`, the IC50 in assay [1] is 97 µM; in assay [2], 103 µM.

On to `COc1cc(Br)ccc1CCCNC(=O)c1c[nH]nn1`, for which the IC50 is 335 µM in assay [1] and 143 µM in assay [2].

`CCCNc1nnc(SCC(C)(C)O)s1`: the IC50 is 159 µM in assay [1] and 297 µM in assay [2].

For the compound `N#Cc1cc(F)c(NCCc2ccc(F)cc2)c(F)c1`, the results for the IC50 in assay [1] and in assay [2] were 22.5 µM and over 50.1 µM, respectively.

In the case of `COc1cccc(N2Cc3nc(=O)n(C(C)C)n3C2=O)c1`, the IC50 in assay [1] and in assay [2] was over 50.1 µM in each case.

As for `O=C(OCCNc1ncccn1)c1ccc(Cl)s1`, the IC50 was over 50.1 µM in assay [1] and 29.7 µM in assay [2].

With `O=C1CC2(CCN(Cc3cccs3)C2)CN1c1cccc(F)c1` (stereo not drawn), the IC50 is 18.6 µM in assay [1] and 1.43 µM in assay [2].

Take `COc1ccc(C(=O)N(C)CCn2cccn2)cc1`: the IC50 in assay [1] and in assay [2] was over 501 µM each time.

Regarding `CN(C)CCN(C)c1ccc(-c2nc(COc3ccccc3)no2)cn1`, the IC50 in assay [1] is 14.4 µM; in assay [2], 48.4 µM.

On to `COc1c(C)cc(Br)cc1C(=O)Nc1nnn(C)n1`, for which the values for the IC50 in assay [1] and in assay [2] were 209 µM and 206 µM, respectively.

Turning to `COCCCN(C)c1nc(-c2ccncc2)nc(C)c1C`, the IC50 in assay [1] was 6.84 µM; in assay [2], 11.8 µM.

Regarding `CN(C)c1ccc(C(=O)N(C)C2(C#N)CCC2)cc1F`, the IC50 in assay [1] and in assay [2] was over 501 µM throughout.

With `CC(C)(C)OC(=O)NC1CC2(CNC2)C1`, the results for the IC50 in assay [1] and in assay [2] were over 501 µM and 244 µM, respectively.

Take `O=S(=O)(CCN1CCCC(O)C1)c1ccc(Br)cc1` (stereo not drawn): the IC50 is 174 µM in assay [1] and 359 µM in assay [2].

For the compound `CC(C)CCNC(=O)Nc1ccc(S(C)(=O)=O)cc1`, the IC50 in assay [1] was 127 µM; in assay [2], 162 µM.

`O=C(NCCSC1CCCC1)c1ccccn1`: the IC50 in assay [1] is over 501 µM; in assay [2] it was 173 µM.

Consider `c1cncc(CN2CCCC(c3nnc(-c4cnccn4)o3)C2)c1` (stereo not drawn), for which the IC50 in assay [1] and in assay [2] was over 50.1 µM in each case.

Take `CC(C)C(NCC(N)=O)c1ccc(F)cc1` (stereo not drawn): the IC50 in assay [1] and in assay [2] was over 501 µM throughout.

In the case of `O=C(CCN1CCCC1CO)NCc1ccccc1Cl` (stereo not drawn), the IC50 in assay [1] is over 501 µM; in assay [2], 460 µM.

On to `COc1ccccc1OC(C)CN` (stereo not drawn), for which the IC50 is 61.1 µM in assay [1] and 20.2 µM in assay [2].

Turning to `COc1ccc(C(N)c2ccc(OC)cc2OC)cc1` (stereo not drawn), the IC50 is 291 µM in assay [1] and 186 µM in assay [2].

Regarding `CCc1cc(C)c(C(=O)Nc2ccc(C(N)=O)nc2)o1`, the IC50 in assay [1] is 69.6 µM; in assay [2] it was 56.5 µM.

As for `CCc1ccc2c(c1)[C@@H](N)CCO2`, the IC50 in assay [1] and in assay [2] was over 501 µM each time.

Turning to `COCCC1CN(C(=O)c2ccc(C)c(F)c2)CCO1` (stereo not drawn), the IC50 in assay [1] was 234 µM; in assay [2] it was 257 µM.

On to `COc1cccc(CCC2CCCN(C(=O)c3ccc(OC)o3)C2)c1` (stereo not drawn), for which the IC50 was 23 µM in assay [1] and 27.7 µM in assay [2].

Take `CCOc1cc(Cl)ccc1CN`: the IC50 is 121 µM in assay [1] and 159 µM in assay [2].

As to `O=C1N(Cc2ccccc2)CCN1S(=O)(=O)Cl`, the figures for the IC50 in assay [1] and in assay [2] were 248 µM and 259 µM, respectively.

For the compound `CN(CC1COc2ccccc2O1)C(=O)C1CCC1` (stereo not drawn), the values for the IC50 in assay [1] and in assay [2] were 173 µM and 182 µM, respectively.

Regarding `CCOc1ccc(CN2CCc3nc4ccsc4c(=O)n3CC2)cc1`, the IC50 was 16.3 µM in assay [1] and 37.8 µM in assay [2].

`O=C(NCCOCc1ccccc1)c1ccco1`: the results for the IC50 in assay [1] and in assay [2] were 245 µM and 249 µM, respectively.

`CN(C)c1ncnc2c1CCN(c1cccc(F)c1)CC2`: the IC50 in assay [1] and in assay [2] was over 50.1 µM each time.

Consider `CC(C)CC(C)N(C)Cc1nnc(-c2ccco2)o1` (stereo not drawn), for which the IC50 in assay [1] was 14.9 µM; in assay [2], 11.7 µM.

As to `O=C1[C@H]2CN(C3CCOC3)C[C@H]2CN1c1ccccc1` (stereo partly drawn), the IC50 in assay [1] and in assay [2] was over 50.1 µM in each case.

As for `OC(Cn1nnc(-c2ccsc2)n1)CC(F)(F)F` (stereo not drawn), the IC50 in assay [1] was 39.2 µM; in assay [2], 56.5 µM.

As for `Cc1cc(C)cc(NC(=O)CNCCCO)c1`, the IC50 in assay [1] and in assay [2] was over 501 µM throughout.

Take `NC(=O)C1CCN(C(=O)COc2ccc(F)cc2Br)C1` (stereo not drawn): the IC50 in assay [1] and in assay [2] was over 501 µM each time.

As for `Cc1cnc(C(=O)NCCCc2ccccn2)cn1`, the results for the IC50 in assay [1] and in assay [2] were over 501 µM and 111 µM, respectively.

Consider `CCc1ccc(OCn2cc(N)cn2)cc1`, for which the IC50 in assay [1] is 134 µM; in assay [2] it was 292 µM.

With `Ic1nnnn1-c1ccccc1`, the IC50 was 108 µM in assay [1] and 147 µM in assay [2].

For `CN1Cc2cc(-c3csc(N)n3)ccc2NC1=O`, the IC50 in assay [1] and in assay [2] was over 501 µM in each case.

Turning to `Cc1nc(NCCSc2cnn[nH]2)c2c(C)noc2n1`, the IC50 in assay [1] and in assay [2] was over 50.1 µM in each case.

`O=C(NC1CCCN(CCCc2ccccc2)C1)c1ccc(Cl)s1` (stereo not drawn): the IC50 is 24.4 µM in assay [1] and 33.6 µM in assay [2].

For `CCOCCC(=O)N1CCN(c2ccc(F)cc2)CC1`, the figures for the IC50 in assay [1] and in assay [2] were 129 µM and 11.3 µM, respectively.

Regarding `Cc1ccc(NC2CCCN(Cc3ccc(Cl)cc3)C2)nn1` (stereo not drawn), the IC50 in assay [1] is 6.67 µM; in assay [2], 7.35 µM.

With `COc1cccc(-c2ncc(CN)s2)c1`, the IC50 in assay [1] was 282 µM; in assay [2], 161 µM.

Turning to `COCCN1CCN(CCS(=O)(=O)C(F)(F)F)CC1`, the IC50 in assay [1] was 293 µM; in assay [2], 131 µM.

In the case of `Cc1nc(CCN)cc(NC2CCC2)n1`, the IC50 in assay [1] was over 501 µM; in assay [2] it was 145 µM.

Consider `C=C(C)CCOC(=O)c1ccc(CS(C)(=O)=O)cc1`, for which the IC50 in assay [1] was 258 µM; in assay [2] it was 275 µM.

As to `COc1ccc(CN(C(=O)C2CCCS2)c2ccncc2)cc1` (stereo not drawn), the IC50 in assay [1] and in assay [2] was over 50.1 µM throughout.

In the case of `OCC1CCN(CCc2ccccc2)C1` (stereo not drawn), the IC50 is 243 µM in assay [1] and 393 µM in assay [2].

`Cc1ccc(NC(C)C(=O)NCc2cccs2)cc1Cl` (stereo not drawn): the values for the IC50 in assay [1] and in assay [2] were 5.63 µM and 5.25 µM, respectively.

In the case of `CN(C)C(=O)CCN1CCCC1c1ccsc1` (stereo not drawn), the IC50 in assay [1] was over 501 µM; in assay [2], 196 µM.

On to `COc1ccc(OC)c(NC(=O)COCC(F)(F)F)c1`, for which the IC50 was over 501 µM in assay [1] and 227 µM in assay [2].

In the case of `O=S(=O)(CCN1CCC[C@H]1CO)c1ccccc1`, the IC50 in assay [1] is over 501 µM; in assay [2], 198 µM.

Regarding `N#Cc1cccc(C(=O)OCCCn2cccn2)c1`, the IC50 in assay [1] and in assay [2] was over 501 µM each time.

`CN(C)CCC(=O)c1ccc(F)cc1`: the IC50 in assay [1] was 177 µM; in assay [2], 92.2 µM.

For `CC(C)CN(Cc1nnc(-c2ccco2)o1)CC(C)C`, the IC50 in assay [1] is over 50.1 µM; in assay [2], 4.4 µM.

Turning to `Cc1ccc(C(=O)NCCNS(=O)(=O)C(C)C)cc1F`, the IC50 in assay [1] was over 501 µM; in assay [2], 155 µM.

Regarding `CC1CCCN(S(=O)(=O)N(C)Cc2ccco2)C1` (stereo not drawn), the IC50 in assay [1] and in assay [2] was over 501 µM each time.

As to `CC(=O)N1CCCC1c1nnc2n1CCCCC2` (stereo not drawn), the IC50 in assay [1] and in assay [2] was over 50.1 µM each time.

As for `C=C(C)CN1CCN(c2ccccn2)CC1`, the IC50 in assay [1] and in assay [2] was over 501 µM throughout.

Turning to `NC(=O)Nc1cccc(C(=O)Nc2ccc(Cl)cn2)c1`, the IC50 in assay [1] is 132 µM; in assay [2], 126 µM.

Consider `O=C(Nc1ccc(F)c(Cl)c1)N1CCC(O)C1` (stereo not drawn), for which the IC50 in assay [1] was 314 µM; in assay [2], 212 µM.

As to `Cc1ccc(C(O)c2cccnc2)cc1` (stereo not drawn), the IC50 in assay [1] and in assay [2] was over 501 µM each time.

Consider `COCCOCCNC(=O)C(C)Oc1ccccc1C(F)(F)F` (stereo not drawn), for which the IC50 in assay [1] and in assay [2] was over 50.1 µM each time.

Turning to `NS(=O)(=O)C1CCN(Cc2ccc(Br)c(F)c2)C1` (stereo not drawn), the results for the IC50 in assay [1] and in assay [2] were over 501 µM and 171 µM, respectively.

Consider `CCOC(C(=O)N(C)CC(N)=O)c1ccccc1` (stereo not drawn), for which the IC50 in assay [1] and in assay [2] was over 501 µM throughout.

In the case of `NC(=O)C1(c2cnccn2)CCCN1C(=O)Cc1ccsc1` (stereo not drawn), the IC50 in assay [1] and in assay [2] was over 50.1 µM in each case.

As to `CCN1CCN(c2ccccc2O)CC1`, the results for the IC50 in assay [1] and in assay [2] were 189 µM and 210 µM, respectively.

Take `O=C(CCc1ccc(Br)cc1)NCCc1nnc[nH]1`: the IC50 in assay [1] and in assay [2] was over 50.1 µM in each case.

For `COc1cccc(F)c1C(C)NC(=O)c1nccn1C` (stereo not drawn), the IC50 was 252 µM in assay [1] and 322 µM in assay [2].

For the compound `CCCC(C)CS(=O)(=O)NCc1ccncc1` (stereo not drawn), the figures for the IC50 in assay [1] and in assay [2] were 123 µM and 115 µM, respectively.

Take `COC(=O)c1ccc(COc2ccccc2CO)o1`: the IC50 in assay [1] is 250 µM; in assay [2], 230 µM.

For the compound `COc1ccc(C(=O)NCCSc2cnn[nH]2)cc1F`, the IC50 in assay [1] and in assay [2] was over 501 µM each time.

Consider `NC(c1cncc(Br)c1)C1CC1` (stereo not drawn), for which the IC50 in assay [1] and in assay [2] was over 501 µM throughout.

As for `C1CC(COCCc2noc(C3CNC3)n2)CCO1`, the IC50 was 279 µM in assay [1] and 337 µM in assay [2].

Consider `Cc1cc(N2CCC2c2ccccc2)n2ncnc2n1` (stereo not drawn), for which the IC50 in assay [1] was 245 µM; in assay [2], 162 µM.
